SMILES strings stand for the structures.

This data set can be described thus: Stability of oxygen-18 labeled organic acids in the sample preparation procedure (L/L extraction, MTBSTFA derivatization, GC/MS). The following applies: for stability of the labeled acid (in words): prior to L/L extraction, during an 80 minute and during a 120 minute L/L extraction.
Setting [1] is: Before L/L extraction, in diluted normal human urine, pH 1, ethyl-acetate extraction, GC/MS [M-57]+.

Turning to `CC(C)CC(O)C(=O)O` (stereo not drawn) [2-hydroxy isocaproic acid], the “stability of the labeled acid (in words)” value is recorded as “exhibited stability”. Under “Before L/L extraction”, this molecule showed a Single labeled of 15.6% and an Unlabeled of 0.4%. For the same molecule, under setting [1], the Double labeled is reported as 84%. Under “L/L 80 min. extraction”, this molecule gave a Double labeled of 83%, a Single labeled of 16.5% and an Unlabeled of 0.5%. For the setting “L/L 120 min. extraction”, the Double labeled came out at 79%, the Single labeled is on record as 20.6% and the Unlabeled was determined as 0.4%.
For `CC(O)C(C)C(=O)O` (stereo not drawn) [3-hydroxy-2-methyl butyric acid], the “stability of the labeled acid (in words)” value is “exhibited stability”. Also, under “Before L/L extraction”, the Single labeled stood at 14.9% and the Unlabeled amounted to 0.1%. This molecule returned a Double labeled under setting [1] of 85%. For the same molecule, under “L/L 80 min. extraction”, the Double labeled was found to be 85%, the Single labeled turned out to be 14.9% and the Unlabeled amounted to 0.1%. Also, under “L/L 120 min. extraction”, the Double labeled stood at 85%, the Single labeled amounted to 14.7% and the Unlabeled is 0.3%.
As for `O=C(O)Cc1ccc(O)cc1` [4-hydroxy phenyl acetic acid], the “stability of the labeled acid (in words)” value was “exhibited stability”. Moreover, for the setting “Before L/L extraction”, the Single labeled is 15.5% and the Unlabeled stood at 0.8%. The Double labeled under setting [1] turned out to be 83.7%. Moreover, under “L/L 80 min. extraction”, the Double labeled is 81%, the Single labeled is listed as 15.8% and the Unlabeled is recorded as 3.2%. For the same molecule, under “L/L 120 min. extraction”, the Double labeled came out at 78%, the Single labeled turned out to be 19.7% and the Unlabeled is listed as 2.3%.
`CCCC(=O)NCC(=O)O` [Oxygen-18-Containing Butyryl Glycine, Butyryl glycine]: the “stability of the labeled acid (in words)” value is given as “exhibited stability”. Where the note is “Before L/L extraction”, this molecule registered a Single labeled of 14.5% and an Unlabeled of 0.5%. The molecule further came in with a Double labeled under setting [1] of 85%. Where the note is “L/L 80 min. extraction”, this molecule displayed a Double labeled of 85%, a Single labeled of 14.8% and an Unlabeled of 0.2%. Under “L/L 120 min. extraction”, this molecule displayed a Double labeled of 83%, a Single labeled of 16.2% and an Unlabeled of 0.8%.
For `CC=CC(=O)NCC(=O)O` [Oxygen-18-Containing Crotonyl Glycine, Crotonyl glycine], the “stability of the labeled acid (in words)” value is given as “exhibited stability”. Where the note is “Before L/L extraction”, this molecule showed a Single labeled of 15.5% and an Unlabeled of 0.1%. This molecule had a Double labeled under setting [1] of 84%. Where the note is “L/L 80 min. extraction”, the Double labeled came to 85%, the Single labeled came to 14.8% and the Unlabeled is listed as 0.2%. Besides, where the note is “L/L 120 min. extraction”, the Double labeled came to 81%, the Single labeled is recorded as 17.4% and the Unlabeled amounted to 1.6%.
Turning to `O=C(O)CCCC(=O)O` [Oxygen-18-Containing Glutaric Acid, Glutaric acid], the “stability of the labeled acid (in words)” value is listed as “exhibited stability”. Moreover, for the setting “Before L/L extraction”, the “Oxygen 18 × 1” value turned out to be 0.4%, the “Oxygen 18 × 2” value was found to be 3.5%, the “Oxygen 18 × 3” value is on record as 27% and the “Oxygen 18 × 4” value was determined as 69%. Moreover, the Unlabeled (Before L/L extraction) was 0.1%. Moreover, where the note is “L/L 80 min. extraction”, the “Oxygen 18 × 1” value was 0.8%, the “Oxygen 18 × 2” value amounted to 3%, the “Oxygen 18 × 3” value is recorded as 28% and the “Oxygen 18 × 4” value is given as 68%. Moreover, for the setting “L/L 80 min. extraction”, the Unlabeled came out at 0.2%. Further, for the setting “L/L 120 min. extraction”, the “Oxygen 18 × 1” value was determined as 0.8%, the “Oxygen 18 × 2” value was determined as 4%, the “Oxygen 18 × 3” value was found to be 30% and the “Oxygen 18 × 4” value is 65%. The same molecule gave an Unlabeled (L/L 120 min. extraction) of 0.2%.
Regarding `O=C(O)C(O)CO` (stereo not drawn) [Oxygen-18-Containing Glyceric Acid, Glyceric acid], the “stability of the labeled acid (in words)” value is on record as “exhibited stability”. Besides, under “Before L/L extraction”, the Single labeled is on record as 13% and the Unlabeled turned out to be 0%. In addition, the Double labeled under setting [1] turned out to be 87%. Under “L/L 80 min. extraction”, this molecule displayed a Double labeled of 84%, a Single labeled of 15.5% and an Unlabeled of 0.5%. Moreover, under “L/L 120 min. extraction”, the Double labeled turned out to be 81%, the Single labeled was determined as 17.6% and the Unlabeled is listed as 2.4%.
As for `CC(=O)CC(=O)CCC(=O)O` [Oxygen-18-Containing Succinyacetone, Succinyacetone], the “stability of the labeled acid (in words)” value was “exhibited stability”. Moreover, under “Before L/L extraction”, the “Oxygen 18 × 1” value was 0.2%, the “Oxygen 18 × 2” value is 2.8%, the “Oxygen 18 × 3” value is reported as 25% and the “Oxygen 18 × 4” value is 72%. Where the note is “Before L/L extraction”, this molecule gave an Unlabeled of 0%. Also, where the note is “L/L 80 min. extraction”, the “Oxygen 18 × 1” value was found to be 0.2%, the “Oxygen 18 × 2” value came to 2.8%, the “Oxygen 18 × 3” value was 27% and the “Oxygen 18 × 4” value is recorded as 70%. The molecule also returned an Unlabeled (L/L 80 min. extraction) of 0%. Under “L/L 120 min. extraction”, the “Oxygen 18 × 1” value stood at 0.8%, the “Oxygen 18 × 2” value is 3%, the “Oxygen 18 × 3” value was determined as 29% and the “Oxygen 18 × 4” value is recorded as 67%. For the setting “L/L 120 min. extraction”, this molecule registered an Unlabeled of 0.2%.
For the molecule `CCC(O)C(=O)O` (stereo not drawn) [oxygen-18-containing 2-OH Butyric Acid, 2-hydroxy-butyric acid], the “stability of the labeled acid (in words)” value is “exhibited stability”. Under “Before L/L extraction”, this molecule had a Single labeled of 15% and an Unlabeled of 1%. The same molecule came in with a Double labeled under setting [1] of 84%. Besides, where the note is “L/L 80 min. extraction”, the Double labeled was 83%, the Single labeled is recorded as 17.4% and the Unlabeled was found to be 0.11%. Also, for the setting “L/L 120 min. extraction”, the Double labeled is 80%, the Single labeled stood at 19.7% and the Unlabeled is listed as 0.3%.

The values are drawn from US7993931B1, “Oxygen-18 labeled organic acids and use in diagnosing metabolic disorders” (Quest Diagnostics Investments Incorporated, priority 2003, dated 2011).
